# Measurements: US5043450A, “8-alkoxyquinolonecarboxylic acid and salts thereof” (priority 1986, dated 1991)
# Columns and labels:
# Test in all cases: Antibacterial spectra, MIC
# Assay type in all cases: cell-based
# E. coli ML 4707 = settings: Escherichia coli, ML4707; 10^6 cells/ml; Gram -
# Protocol: (§1) The antibacterial test was carried out according to the method designated by Japan Society of Chemotherapy.
# [1] = system: Streptococcus pyogenes (S-8); settings: 10^6 cells/ml, Gram +
# Protocol: as §1
# [2] = system: Proteus vulgaris IFO 3167; settings: IFO3167, 10^6 cells/ml, Gram -
# Protocol: as §1
# E. faecalis IID 682 = settings: Enterococcus faecalis, IID682; 10^6 cells/ml; Gram +
# Protocol: as §1
# Shigella sonnei IID 969 = settings: IID969, 10^6 cells/ml, Gram -
# Protocol: as §1
# [3] = system: Enterobacter cloacae IID 977; settings: IID977, 10^6 cells/ml, Gram -, read-out: MIC
# S. aureus Smith = settings: Staphylococcus aureus; 10^6 cells/ml; Gram +; read-out: MIC
# [4] = system: Citrobacter freundii IID 976; settings: IID976, 10^6 cells/ml, Gram -, read-out: MIC
# [5] = system: Yersinia enterocolitica IID 981; settings: IID981, 10^6 cells/ml, Gram -, read-out: MIC
# F. necrophorum S-45 = settings: Fusobacterium necrophorum, S45; 10^6 cells/ml; Gram -; read-out: MIC
smiles,measurement,setting,value
"CCOc1c(N2CCNCC2)c(F)cc2c(=O)c(C(=O)O)cn(C3CC3)c12 [Exp. 18, 1-cyclopropyl-6-fluoro-1,4-dihydro-8-ethoxy-4-oxo-7-(1-piperazinyl)-3-quinolinecarboxylic acid]",MIC,E. coli ML 4707,≤ 0.05 µg/mL
same,MIC,[1],1.56 µg/mL
same,MIC,[2],≤ 0.05 µg/mL
same,MIC,E. faecalis IID 682,1.56 µg/mL
same,MIC,Shigella sonnei IID 969,≤ 0.05 µg/mL
same,MIC,[3],0.2 µg/mL
same,MIC,S. aureus Smith,0.39 µg/mL
same,MIC,[4],0.1 µg/mL
same,MIC,[5],0.2 µg/mL
same,MIC,F. necrophorum S-45,3.13 µg/mL
